Experimental data from US20240368209A1, “GEMCITABINE ANTICANCER DERIVATIVE AND ANTICANCER PHARMACEUTICAL USE” (ASCENTAWITS PHARMACEUTICALS, LTD., priority 2021, published 2024).
pIC50: −log10 of the molar value. Where “and” joins values, the source holds several entries; their conditions need not be identical. Equal entries are not always repeated. Where two headings read alike, the source gives them in different places.

Tests used:
[1] = test system: H460 non-small cell lung cancer human tumor cell line; assay: In vitro human tumor cell line cytotoxicity (proliferation) assay on H460, CTG, with or without AST-3021; type: cell-based; settings: for pIC50: Homo sapiens
Experimental: In vitro human tumor cell line cytotoxicity assay was used.
In vitro proliferation data on the H460 non-small cell lung cancer human tumor cell line (cell line which highly expresses AKR1C3) is reported below in the compound table.
IC50 values were obtained with the following steps:
Specifically, exponentially growing cells were seeded at a density of 2×10^3 cells/100 μL/well in a 96-well plate and incubated at 37° C. in 5% CO2, 95% air and 100% relative humidity for 24 hours. The test compound was administered alone: 24 hours after cell plating, the compound acted alone, 99 μL of growth medium per well was added, and 1 μL of the compound prepared at 200× was added, and the plate was shaken gently to ensure even mixing, then placed into an incubator of 37° C., 5% CO2. After further cultivation for 72 hours, the number of live cells was detected using CTG. The CTG detection method was as follows: the cell plate to be tested was placed at room temperature to equilibrate for 30 minutes, and 100 μL of medium per well was discarded. 25 μL of CTG reagent (CellTiter-Glo® kit) per well was added, and the plate was placed in a high-speed shaker to oscillate for 2 minutes, and placed at room temperature in the dark for 30 minutes. The chemiluminescence signal value was read using a multimode microplate reader, with a read time of 1000 ms.
Similarly, in order to further verify that the compounds were activated by human AKR1C3 (aldosterone reductase family 1 member C3), the effect of some of the compounds on the proliferation of H460 cancer cells was tested with pretreatment with a specific AKR1C3 enzyme inhibitor AST-3021 (3 μM). The detailed experimental procedure was as follows: 24 hours after cell plating, 98 μL of growth medium per well was added, and 1 μL of 200×compound AST-3021 was added to each well, and the plate was shaken gently to ensure even mixing, and then placed into an incubator; after 2 hours, 1 μL of the test compound prepared at 200× was added, and the plate was shaken gently to ensure even mixing and then laced into an incubator of 37° C., 5% CO2. The inhibitor used was compound 36, i.e.
in Flanagan et al., Bioorganic and Medicinal Chemistry (2014), page 962-977, and is referred to as AST-3021 in this invention. The values measured in this case are values corresponding to +AST-3021 IC50 (nM) in Table 1.
The value corresponding to +AST-3021 IC50 (nM) divided by the value corresponding to IC50 (nM) is the specific activation ratio. The relative magnitude of the specific activation ratio can be used to evaluate whether this compound is a cytotoxic compound activated by human AKR1C3 (aldosterone reductase family 1 member C3): when the specific activation ratio is less than 1, it is considered that the compound is not activated by human AKR1C3 (aldosterone reductase family 1 member C3); when the specific activation ratio is greater than 1, it is considered that the compound is activated by human AKR1C3 (aldosterone reductase family 1 member C3), and the higher the value, the higher the activation degree and the selectivity of AKR1C3.

H460 cancer cells = assay: Inhibition of H460 cancer cells in the presence or absence of AKR1C3 inhibitor AST-3021 (section 2.1); type: cell-based, human; settings: AST-3021 3 μM, read-out: IC50 (nmol/L) AST-3021 added
Experimental: The experimental scheme was as follows: • 1) H460 cell suspension was added to a 96-well plate with 100 μL per well at a cell density of 2000/well. • 2) Cells were incubated in an incubator of 37° C., 5% CO2 overnight. • 3) Compound treatment
Combined administration: 24 hours after cell plating, 98 μL of growth medium per well was added. 1 μL of AST-3021 was added to each well (final concentration 3 μM), and the plate was shaken gently to ensure even mixing, and then placed into an incubator; after 2 hours, 1 μL of the test compound at different concentrations was added, and the plate was shaken gently to ensure even mixing, and then placed into an incubator of 37° C., 5% CO2.
Administration of the drug alone: 24 hours after cell plating, 99 μL of growth medium per well was added.
In order to further verify that the compound was activated specifically by human AKR1C3 (aldosterone reductase family 1 member C3), the compound was added following the pretreatment of cells with the specific AKR1C3 enzyme inhibitor AST-3021 (3 μM), and the effect of the presence of AST-3021 on the proliferation of H460 cancer cells was tested
IC50 data of inhibitory effect of the compounds gemcitabine and H11 on H460 cancer cells in the presence or absence of the AKR1C3 inhibitor AST-3021 is shown in Table 2 and Table 3.

[2] = Plasma stability in human plasma; type: in vitro ADME
Experimental: (§1) The final concentration of organic solvents was 0.5%. The test was conducted in duplicate. • C.
(§2) Samples were analyzed with LC-MS/MS. All calculations were conducted using Microsoft Excel.

[3] = Plasma stability in dog plasma; type: in vitro ADME
Experimental: as §1, §2

[4] = Maximal tolerance dose (MTD) test; type: in vivo; settings: mice
Experimental: According to the research scheme in Table 14, mice were grouped and administered at the concentrations and dosage levels shown in Table 14. On the 1st to 5th day and the 14th to 19th day, intraperitoneal injection of a solvent control or compound H11 at different dosage levels was performed, with a dose volume of 10 mL/kg. Animals in Groups 1, 3, and 4 were put to death and autopsied on the 22nd day, and animals in Group 2 were put to death and autopsied on the 16th day.
The evaluated parameters included cage-side observation, detailed clinical observation, and post-administration observation (approximately 1-2 hours after dosing), body weight and weight change, food intake, and gross pathology.

## CC(C)NP(=O)(OCc1ccc([N+](=O)[O-])c(Oc2ccc(-c3ccc(F)cc3)c(F)c2)c1)OCC1OC(C2N=CC(N)=NC2=O)C(F)(F)C1O (stereo not shown) [Compound H11]
[1]
  specific activation ratio (+AST-3021 IC50/IC50): 92.8
[1]; NCI-H460, compound alone, 72 hours, read-out: IC50
  pIC50: 7.80
[1]; NCI-H460, pretreatment with AKR1C3 inhibitor AST-3021 (3 μM), read-out: +AST-3021 IC50
  pIC50: 5.83
H460 cancer cells; H460
  pIC50: 5.83 and 5.63
H460 cancer cells; Homo sapiens, NCI-H460, H460
  pIC50: 5.53
[2]
  t1/2 (min): ∞
[2]; 0 min, 5 μM, 37° C.
  Remaining percentage (%): 100.00%
[2]; 37° C., at least 2 hours
  plasma stability (in words): stable and has no significant metabolism
[2]; 15 min
  Remaining percentage (%): 95.74%
[2]; 30 min
  Remaining percentage (%): 94.17%
[2]; 60 min
  Remaining percentage (%): 102.77%
[2]; 120 min
  Remaining percentage (%): 99.46%
[3]
  t1/2 (min): ∞
[3]; 0 min, 5 μM, 37° C.
  Remaining percentage (%): 100.00%
[3]; 37° C., at least 2 hours
  plasma stability (in words): stable and has no significant metabolism
[3]; 15 min
  Remaining percentage (%): 104.14%
[3]; 30 min
  Remaining percentage (%): 103.37%
[3]; 60 min
  Remaining percentage (%): 102.42%
[3]; 120 min
  Remaining percentage (%): 103.04%
[4]; 80, 160, 320 mg/kg/day i.p.
  Clinical symptoms: No abnormal compound-related clinical manifestation was observed
  Impact on animal weight and food intake: No abnormal compound-related change in body weight or food intake was observed
[4]; 80, 160, 320 mg/kg/day i.p., two rounds of 5 days
  Mortality of animals: all experimental animals survived until the planned autopsy
[4]; i.p.
  dose at which enlargement of the spleen was visible (pathological examination): ≥ 160 mg/kg
  dose group with change to white in the renal capsule (pathological examination): 320 mg/kg
[4]; intraperitoneal injection once a day for 5 consecutive days
  maximal tolerance dose: 320 mg/kg
